# Measurements published in patent publication US20110251188A1, “ACENAPHTHO HETEROCYCLE COMPOUNDS, CYCLODEXTRIN INCLUSION COMPOUNDS AND COMPLEXES, AND USES IN THE MANUFACTURES OF BH3 PROTEIN ANALOGUE, BCL-2 FAMILY PROTEIN INHIBITORS THEREOF” (DALIAN UNIVERSITY OF TECHNOLOGY, priority 2008, published 2011).
# Like-named read-outs stand apart in the source and are kept apart here.
# Columns and labels:
# [1] = target: T1, GST-Bcl-2 protein (Homo sapiens, UniProt P10415); test: fluorescence polarization assay, competitive binding against FAM-Bid peptide; details: Table 3; FAM-Bid competition; table does not say whether Bcl-2 or Mcl-1; read-out: Binding constant
# T1 construct: fused on or other part: GST tag on Bcl-2
# T1 sequence (P10415 whole entry, the tested form may be a part): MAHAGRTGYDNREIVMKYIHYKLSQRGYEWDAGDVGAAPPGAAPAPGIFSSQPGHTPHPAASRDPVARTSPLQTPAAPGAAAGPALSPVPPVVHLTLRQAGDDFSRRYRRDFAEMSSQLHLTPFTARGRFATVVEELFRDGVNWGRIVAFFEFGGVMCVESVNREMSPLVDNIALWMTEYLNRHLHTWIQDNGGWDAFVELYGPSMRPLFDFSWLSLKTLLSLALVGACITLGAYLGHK
# Protocol: A Bid BH3 peptide (amino acids: 79-99: […]) having 21 amino acids was synthesized and marked with 6-carboxyfluorescein N-succinimidyl ester (FAM) as fluorescent tag (FAM-Bid) at the N-terminal. The reaction system used in the competitive binding experiment was GST-Bcl-2 protein (40 nM) or Mcl-1 protein, which was dissolved in the reaction buffer (100 mM K3PO4, pH 7.5; 100 μg/ml bovine γ albumin; 0.02% sodium azide) together with FAM-Bid polypeptide (5 nM). In a 96-well plate, 100 μL of the reaction system was added into each well. Then 1 μL different concentration of 3-thiomorpholinyl-8-oxo-8H-acenaphtho[1,2-b]pyrrole-9-carbonitrile mother solution to be detected dissolved in DMSO was added thereinto until the final concentration met the experimental design requirements. Meanwhile, two control groups were established, one with the reaction system only contains Bcl-2 or Mcl-1 and FAM-Bid (equivalent to 0% inhibition rate), the other with the reaction system only containing FAM-Bid peptide. After 4 hours of incubation, the 96-well plate was detected by enzyme-labelled meter. The fluorescent polarization value (mP) was tested at […]. Ki value was deduced according to calculation formula. The competitive binding constant between the compound and Bcl-2 was 310 nM.
# [2] = target: T2, interaction between Bcl-2 and Bax (Homo sapiens, UniProt P10415); test: intracellular fluorescence polarization energy transfer (FRET), Hela cells transfected with Bcl-2-CFP and Bax-YFP; type: cell-based; details: for Time for which the compound interfered with the interaction between Bcl-2 and Bax: goes with the concentration of E11; for Concentration at which the compound interfered with the interaction between Bcl-2 and Bax: goes with the time of E12
# T2 construct: expressed in transfected cells; host or cells: Hela cells
# T2 sequence (P10415 whole entry): as the sequence (P10415 whole entry, the tested form may be a part) above
# Protocol: 24 hours later (please refer to FIG. 2), the cells were washed with PBS for three times. The fluorescence value was detected by GENIOS fluorescence enzyme-labelled meter (TECAN, Swiss). In time-dependent experiment, the transfected cells were inoculated in a 6-well plate, after that, 40 μM of the compound was added thereinto. 3, 6 and 24 hours later (FIG. 3), the fluorescence intensities were detected by plate reader. As for the cell group in which only Bcl-2-CFP plasmid was transfected, the values at 475 nm emission wave length and 433 nm excitation wave length were recorded. As for the cell group in which only Bax-YFP plasmid was transfected, the values at 527 nm emission wave length and 505 nm excitation wave length were recorded. […] The ratio of fluorescence intensity at 527 nm and 475 nm emission wave lengths was FRET. The FRET for the control group in which the plasmid was solely transfected was set as 1.0. […] The cellular vitality was detected by MTT method.
# Wherein the concentration and time meant that the detected compound interfered with the interaction between Bcl-2 and Bax at the concentration for the time period.
# [3] = phase solubility experiment (solubility in water before and after cyclodextrin inclusion or complexation); details: for solubility: thermodynamic from solid, Solubility of compounds
# [4] = test system: Mcl-1; test: Western blotting, inhibition (downregulation) of Mcl-1 in tumor cells, Example 23; type: cell-based; details: for inhibition against Mcl-1: Western blotting, tumor cells
# Protocol: (§1) The interest protein was detected by the corresponding antibody. The expression of the interest protein in the cells was detected by horseradish peroxidase-labeled secondary antibodies in combination with ECL coloration method. […] The concentration of the protein bands in the Western images were carried out semiquantitative analysis and normalization treatment with KODAK Gel Logic 1500 imaging system software.
# [5] = test system: Bcl-2; test: Western blotting, inhibition (downregulation) of Bcl-2 in tumor cells, Example 23; type: cell-based; details: for inhibition against Bcl-2: Western blotting, tumor cells
# Protocol: as §1
# [6] = test system: Bax protein; test: co-localization between Bax protein and chondriosome, Bax-YFP transfected MCF-7 cells; type: cell-based; details: for Time for which the compound drove the BAX to shift towards the chondriosome: goes with the concentration of E14; for Concentration at which the compound drove the BAX to shift towards the chondriosome: goes with the time of E15
# Protocol: 5 ng of Bax-YFP plasmid was transfected into MCF-7 cells by using calcium phosphate coprecipitation method, 24 hours later, the cells were inoculated in a 6-well plate (0.2×10^6 cells/well), and 10 μM of the compound 3-thiomorpholinyl-8-oxo-8 H-acenaphtho[1,2-b]pyrrole-9-carbonitrile to be detected was added thereinto. 6 hours later, the cells were washed with PBS and hatched away from light with 50 nM Mito Tracker Red CMXRos (chondriosome specific probes; red) for 10 minutes. Then the cells were washed with PBS for three times, and the fluorescent image was scanned with Radiance2000 laser confocal microscopy (Bio-Rad, USA). Meanwhile, dual channel scanning was carried out, one channel was used to scan the green fluorescence of Bax-YFP, and the other channel was used to scan the red fluorescence of the CMXRos probe for indicating the chondriosome. […] When the Bax protein was localized on the chondriosome, the green and red fluorescence was superimposed into orange, as shown in FIG. 4.
# Other 8 compounds were detected by the same experimental method as described above. […] Wherein the concentration and time meant that the detected compound simulated the BH3-only protein and driven the BAX to shift towards the chondriosome at the concentration for the time period.
# [7] = test system: MCF-7 cells; test: cytotoxicity depending on BAX/BAK, MTT, MCF-7 cells with or without BAX/BAK interfering plasmid; type: cell-based
# Protocol: 3 ng of BAX/BAK interfering plasmid was transfected into MCF-7 cells by using calcium phosphate coprecipitation method, 24 hours later, the cells were collected. The expressions after the BAX and BAK proteins interfered with RNA was detected by Western, and the cell groups without plasmid transfection were treated similarly and were set as the control group. The transfected cells were inoculated in a 96-well plate (1×10^5 cells/well), the control experiment of the cell group without plasmid transfection was carried out in parallel. The compound 3-thiomorpholinyl-8-oxo-8 H-acenaphtho[1,2-b]pyrrole-9-carbonitrile to be detected was added thereinto according to the concentration gradient designed before the experiment. 48 hours later, the cellular vitality was detected by MTT. The experimental results were shown in FIG. 6, Gossypol as nonspecific BH3 analogue was treated in parallel.
# [8] = test system: hepatoma carcinoma cells H22; test: in vivo tumor model, subcutaneous H22 tumor in Kunming mice; details: H22 mouse model of Example 25; dose and route not stated at the place
# Protocol: The Kunming mice (in China) were randomly divided into groups, with 10 mice in each group. The cultivated hepatoma carcinoma cells H22 were inoculated subcutaneously in the oxter of the mice with 200 μL/mouse. After bearing the cancer cells for five days, the subcutaneous tumor was formed. Then the compound 3-thiomorpholinyl-8-oxo-8H-acenaphtho[1,2-b]pyrrole-9-carbonitrile and γ-cyclodextrin inclusion compound thereof were given by peritoneal injection, and the compound to be detected included by γ-cyclodextrin was given by oral administration. The detection conditions comprise:
# Blank control group: the mice were not treated in any manner after the bearing cancer;
# Control group (1): the mice were given a peritoneal injection of DMSO solution every other day after the bearing cancer, 10 days in total;
# Control group (2): the mice were given a peritoneal injection of cyclodextrin solution every other day after the bearing cancer, 10 days in total;
# Experimental group (1): the mice were given a peritoneal injection of DMSO solution equivalent to 0.03 mg/kg BW compound every other day after the bearing cancer, 10 days in total;
# Experimental group (2): the mice were given a peritoneal injection of DMSO solution equivalent to 0.3 mg/kg BW compound every other day after the bearing cancer, 10 days in total;
# Experimental group (3): the mice were given a peritoneal injection of inclusion compound water solution equivalent to 0.3 mg/kg BW compound every other day after the bearing cancer, 10 days in total;
# Experimental group (4): the mice were given an intragastric administration of inclusion compounds water solution equivalent to 0.3 mg/kg BW compound every other day after the bearing cancer, 10 days in total;
# During the experimental period, the length-diameter (a) and short diameter (b), which was perpendicular to the length-diameter, of the tumor were detected twice every week. The gross tumor volume was determined according to the formula: ½ab^2. The survival time of the animal was observed. The tumor inhibition rate was calculated by the tumor volume on the fortieth day.
# [9] = Table 1, compound per se, before inclusion
compound,measurement,setting,value
"3-phenoxy-8-oxo-8H-acenaphtho[1,2-b]pyrrole-9-carboxylate",Ki,[1],790 nM
same,Time for which the compound interfered with the interaction between Bcl-2 and Bax,[2],6 h
same,Concentration at which the compound interfered with the interaction between Bcl-2 and Bax,[2],10.0 µM
"CC(C)c1ccc(Oc2ccc3c4c(cccc24)C2=C(C#N)C(=O)N=C23)cc1 [4-(4-isopropylphenoxy)-8-oxo-8H-acenaphtho[1,2-b]pyrrole-9-carbonitrile]",solubility,[3]; [9],0.12 µM
"CC(C)(C)NC(=O)C1=C2C(=NC1=O)c1cccc3c(Oc4ccccc4)ccc2c13 [3-phenoxy-8-oxo-8H-acenaphtho[1,2-b]pyrrole-9-N-tert-butylamide]","downregulation of Mcl-1 protein, semiquantitative analysis (band concentration, control = 1)",[4]; 6 hours,0.99
same,"downregulation of Mcl-1 protein, semiquantitative analysis (band concentration, control = 1)",[4]; 12 hours,0.99
same,"downregulation of Mcl-1 protein, semiquantitative analysis (band concentration, control = 1)",[4]; 18 hours,0.78
same,"downregulation of Mcl-1 protein, semiquantitative analysis (band concentration, control = 1)",[4]; 24 hours,0.51
same,inhibition against Mcl-1,[4],had the inhibition against Bcl-2 and Mcl-1 proteins
same,"downregulation of Bcl-2 protein, semiquantitative analysis (band concentration, control = 1)",[5]; 2 hours,0.80
same,"downregulation of Bcl-2 protein, semiquantitative analysis (band concentration, control = 1)",[5]; 6 hours,0.56
same,inhibition against Bcl-2,[5],had the inhibition against Bcl-2 and Mcl-1 proteins
"O=C(O)C1=C2C(=NC1=O)c1cccc3c(Oc4ccccc4)ccc2c13 [3-phenoxy-8-oxo-8H-acenaphtho[1,2-b]pyrrole-9-carboxylic acid]",Time for which the compound drove the BAX to shift towards the chondriosome,[6],6 h
same,Concentration at which the compound drove the BAX to shift towards the chondriosome,[6],10.0 µM
same,dependence of cytotoxicity on BAX/BAK,[7],absolute dependence on BAX/BAK
"N#CC1=C2C(=NC1=O)c1ccc(Oc3ccccc3)c3cccc2c13 [4-phenoxy-8-oxo-8H-acenaphtho[1,2-b]pyrrole-9-carbonitrile]",Time for which the compound drove the BAX to shift towards the chondriosome,[6],6 h
same,Concentration at which the compound drove the BAX to shift towards the chondriosome,[6],10.0 µM
same,Ki,[1],890 nM
same,Time for which the compound interfered with the interaction between Bcl-2 and Bax,[2],6 h
same,Concentration at which the compound interfered with the interaction between Bcl-2 and Bax,[2],10.0 µM
"N#CC1=C2C(=NC1=O)c1cccc3c(Sc4ccccc4)ccc2c13 [3-phenylthio-8-oxo-8H-acenaphtho[1,2-b]pyrrole-9-carbonitrile]",solubility,[3]; [9],0.22 µM
"NC(=O)C1=C2C(=NC1=O)c1cccc3c(N4CCSCC4)ccc2c13 [3-thiomorpholinyl-8-oxo-8H-acenaphtho[1,2-b]pyrrole-9-carboxamide]",tumor inhibition rate,[8],45%
"N#CC1=C2C(=NC1=O)c1cccc3c(OC4CCOCC4)ccc2c13 [3-(tetrahydro-2H-pyranyl-4-oxo)-8-oxo-8H-acenaphtho[1,2-b]pyrrole-9-carbonitrile]",Ki,[1],600 nM
"N#CC1=C2C(=NC1=O)c1cccc3c(C(=O)c4cccc(F)c4)ccc2c13 [3-(3-fluorophenylformyl)-8-oxo-8H-acenaphtho[1,2-b]pyrrole-9-carbonitrile]",dependence of cytotoxicity on BAX/BAK,[7],absolute dependence on BAX/BAK
same,Time for which the compound interfered with the interaction between Bcl-2 and Bax,[2],6 h
same,Concentration at which the compound interfered with the interaction between Bcl-2 and Bax,[2],10.0 µM
"Cc1ccc(Oc2ccc3c4c(cccc24)C2=NC(=O)C(C#N)=C23)cc1 [3-(p-methylphenoxy)-8-oxo-8H-acenaphtho[1,2-b]pyrrole-9-carbonitrile]",solubility,[3]; [9],0.25 µM
"COc1ccc(Oc2ccc3c4c(cccc24)C2=NC(=O)C(C#N)=C23)cc1 [3-(4-methoxyphenoxy)-8-oxo-8H-acenaphtho[1,2-b]pyrrole-9-carbonitrile]",solubility,[3]; [9],0.32 µM
"O=C(O)C1=C2C(=NC1=O)c1cccc3c(Sc4ccc(Br)cc4)ccc2c13 [3-(4-bromophenylthio)-8-oxo-8H-acenaphtho[1,2-b]pyrrole-9-carboxylic acid]",tumor inhibition rate,[8],45%
same,solubility,"[3]; Table 2, compound per se, before complexation",0.55 µM
"N#CC1=C2C(=NC1=O)c1c(OCc3cccs3)ccc3cccc2c13 [6-(thienyl-2-methoxy)-8-oxo-8H-acenaphtho[1,2-b]pyrrole-9-carbonitrile]",Time for which the compound drove the BAX to shift towards the chondriosome,[6],6 h
same,Concentration at which the compound drove the BAX to shift towards the chondriosome,[6],10.0 µM
same,"downregulation of Mcl-1 protein, semiquantitative analysis (band concentration, control = 1)",[4]; 6 hours,0.99
same,"downregulation of Mcl-1 protein, semiquantitative analysis (band concentration, control = 1)",[4]; 12 hours,0.99
same,"downregulation of Mcl-1 protein, semiquantitative analysis (band concentration, control = 1)",[4]; 18 hours,0.54
same,"downregulation of Mcl-1 protein, semiquantitative analysis (band concentration, control = 1)",[4]; 24 hours,0.33
same,inhibition against Mcl-1,[4],had the inhibition against Bcl-2 and Mcl-1 proteins
same,Solubility of compounds,[3]; [9],0.35 µM
same,Ki,[1],560 nM
same,dependence of cytotoxicity on BAX/BAK,"[7]; MCF-7 cells, 48 hours, MTT",absolute dependence on BAX/BAK
same,Time for which the compound interfered with the interaction between Bcl-2 and Bax,[2],6 h
same,Concentration at which the compound interfered with the interaction between Bcl-2 and Bax,[2],10.0 µM
same,"downregulation of Bcl-2 protein, semiquantitative analysis (band concentration, control = 1)",[5]; 2 hours,0.69
same,"downregulation of Bcl-2 protein, semiquantitative analysis (band concentration, control = 1)",[5]; 6 hours,0.40
same,inhibition against Bcl-2,[5],had the inhibition against Bcl-2 and Mcl-1 proteins
"N#CC1=C2C(=NC1=O)c1cccc3c(Sc4ccc(N)cc4)ccc2c13 [3-(4-aminophenylthio)-8-oxo-8H-acenaphtho[1,2-b]pyrrole-9-carbonitrile]",solubility,[3]; [9],0.25 µM
